Results from ChEMBL document CHEMBL1138463, “Structure-based design, synthesis, and characterization of inhibitors of human and Plasmodium falciparum dihydroorotate dehydrogenases” (J Med Chem, 2009).

What was measured:
[1] = biological target: T1, Dihydroorotate dehydrogenase (Plasmodium falciparum, UniProt Q54A96)
T1 sequence (Q54A96 whole entry): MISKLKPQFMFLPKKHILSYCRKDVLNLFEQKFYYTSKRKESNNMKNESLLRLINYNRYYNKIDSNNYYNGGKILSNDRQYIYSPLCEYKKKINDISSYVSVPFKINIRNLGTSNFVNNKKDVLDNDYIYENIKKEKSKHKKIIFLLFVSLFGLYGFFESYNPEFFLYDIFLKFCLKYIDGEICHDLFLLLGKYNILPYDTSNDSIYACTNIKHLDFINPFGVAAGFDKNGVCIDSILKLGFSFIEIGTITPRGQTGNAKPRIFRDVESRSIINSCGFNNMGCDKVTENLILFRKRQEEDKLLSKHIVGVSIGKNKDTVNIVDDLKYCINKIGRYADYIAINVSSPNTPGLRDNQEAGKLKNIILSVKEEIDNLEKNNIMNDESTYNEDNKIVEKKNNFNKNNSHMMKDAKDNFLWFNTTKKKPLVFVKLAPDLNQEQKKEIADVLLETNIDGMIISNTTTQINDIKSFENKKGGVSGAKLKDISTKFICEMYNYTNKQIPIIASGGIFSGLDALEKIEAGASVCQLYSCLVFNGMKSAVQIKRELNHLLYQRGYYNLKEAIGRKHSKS
Description: Inhibition of ubiquinone binding site of Plasmodium falciparum dihydroorotate dehydrogenase

[2] = biological target: Dihydroorotate dehydrogenase (quinone), mitochondrial (Homo sapiens, UniProt Q02127)
Sequence of Dihydroorotate dehydrogenase (quinone), mitochondrial (Q02127 whole entry): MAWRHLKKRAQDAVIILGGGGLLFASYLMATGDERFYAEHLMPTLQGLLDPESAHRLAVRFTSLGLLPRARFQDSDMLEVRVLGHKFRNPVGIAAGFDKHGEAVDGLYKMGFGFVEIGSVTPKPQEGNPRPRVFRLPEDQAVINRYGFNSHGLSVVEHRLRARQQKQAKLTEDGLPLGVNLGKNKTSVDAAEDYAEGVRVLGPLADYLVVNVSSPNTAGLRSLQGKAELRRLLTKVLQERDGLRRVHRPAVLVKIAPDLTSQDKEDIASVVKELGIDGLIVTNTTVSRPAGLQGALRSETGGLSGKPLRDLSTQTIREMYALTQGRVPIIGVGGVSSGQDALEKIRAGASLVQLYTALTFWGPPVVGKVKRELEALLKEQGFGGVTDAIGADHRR
Description: Inhibition of ubiquinone binding site of human dihydroorotate dehydrogenase

## C/C(O)=C(\C#N)C(=O)Nc1ccc(-c2cccc(Cl)c2)cc1C(F)(F)F
[1]
  IC50: 57200 nM
  Ki: 6800 nM
[2]
  IC50: 86600 nM
  Ki: 10700 nM

## C/C(O)=C(\C#N)C(=O)Nc1ccc(-c2ccccc2Cl)c(Cl)c1
[1]
  IC50: 165000 nM
  Ki: 20500 nM
[2]
  IC50: 22 nM
  Ki: 2.7 nM

## C/C(O)=C(\C#N)C(=O)Nc1ccc(-c2cccc(Cl)c2Cl)cc1
[1]
  IC50: 27200 nM
  Ki: 3200 nM
[2]
  IC50: 200 nM
  Ki: 25 nM

## C/C(O)=C(\C#N)C(=O)Nc1ccc(-c2c(Cl)cccc2Cl)cc1Cl
[1]
  IC50: 10200 nM
  Ki: 1200 nM
[2]
  IC50: 16500 nM
  Ki: 2000 nM

## COc1ccccc1-c1ccc(NC(=O)/C(C#N)=C(/C)O)c(Cl)c1
[1]
  IC50: 8600 nM
  Ki: 1000 nM
[2]
  IC50: 200 nM
  Ki: 25 nM

## N#C/C(C(=O)Nc1ccc(C(F)(F)F)cc1)=C(/O)C1CC1
[1]
  IC50: 92500 nM
  Ki: 11000 nM
[2]
  IC50: 117 nM
  Ki: 14 nM

## C/C(O)=C(\C#N)C(=O)Nc1ccc(-c2ccccc2Cl)cc1C(F)(F)F
[1]
  IC50: 6200 nM
  Ki: 730 nM
[2]
  IC50: 170 nM
  Ki: 21 nM

## C/C(O)=C(\C#N)C(=O)Nc1ccc(-c2ccccc2Cl)cc1Cl
[1]
  IC50: 4000 nM
  Ki: 480 nM
[2]
  IC50: 180 nM
  Ki: 22 nM

## C/C(O)=C(\C#N)C(=O)Nc1ccc(-c2ccccc2Cl)cc1
[1]
  IC50: 47400 nM
  Ki: 5600 nM
[2]
  IC50: 130 nM
  Ki: 16 nM

## C/C(O)=C(\C#N)C(=O)Nc1ccc(-c2cccc(Cl)c2)c(Cl)c1
[1]
  IC50: 237000 nM
  Ki: 28000 nM
[2]
  IC50: 190 nM
  Ki: 23 nM

## C/C(O)=C(\C#N)C(=O)Nc1ccc(-c2ccccc2)cc1Cl
[1]
  IC50: 51100 nM
  Ki: 6000 nM
[2]
  IC50: 320 nM
  Ki: 39 nM

## N#C/C(C(=O)Nc1ccc(-c2ccccc2)cc1)=C(/O)C1CC1
[2]
  IC50: 53 nM
  Ki: 7 nM

## C/C(O)=C(\C#N)C(=O)Nc1ccc(-c2cccc(Cl)c2)cc1Cl
[1]
  IC50: 49100 nM
  Ki: 5800 nM
[2]
  IC50: 1520 nM
  Ki: 190 nM

## CCOc1cccc(-c2ccc(NC(=O)/C(C#N)=C(/C)O)cc2)c1
[1]
  IC50: 182000 nM
  Ki: 21500 nM
[2]
  IC50: 130 nM
  Ki: 16 nM

## C/C(O)=C(\C#N)C(=O)Nc1ccc(-c2cccc(Cl)c2Cl)cc1Cl
[1]
  IC50: 9900 nM
  Ki: 1200 nM
[2]
  IC50: 330 nM
  Ki: 40 nM

## C/C(O)=C(\C#N)C(=O)Nc1ccc(-c2ccccc2)cc1
[1]
  IC50: 25700 nM
  Ki: 3000 nM
[2]
  IC50: 90 nM
  Ki: 11 nM
